In this assay the target is Human immunodeficiency virus type 1 integrase (Human immunodeficiency virus 1, UniProt Q7ZJM1). The assay can be described thus: Inhibition of Human immunodeficiency virus 1 integrase 3'-processing activity expressed in Escherichia coli using 21-mer DNA and Mg2+ after 2 hrs by polyacrylamide gel electrophoresis.
Chain of Human immunodeficiency virus type 1 integrase (Q7ZJM1 whole entry): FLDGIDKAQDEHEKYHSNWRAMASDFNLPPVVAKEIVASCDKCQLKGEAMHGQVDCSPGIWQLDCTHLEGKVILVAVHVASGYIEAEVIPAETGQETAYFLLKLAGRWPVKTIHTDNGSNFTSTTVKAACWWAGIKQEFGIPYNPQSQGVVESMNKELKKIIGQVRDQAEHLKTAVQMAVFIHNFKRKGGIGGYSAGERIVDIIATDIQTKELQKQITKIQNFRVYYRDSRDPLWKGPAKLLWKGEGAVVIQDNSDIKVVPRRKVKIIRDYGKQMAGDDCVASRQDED
The IC50 is the concentration at which inhibition is half-maximal. Consider `Cc1cn([C@H]2C[C@H](OP(=O)(O)OC[C@H]3O[C@@H](n4cc(C)c(=O)[nH]c4=O)C[C@@H]3OP(=O)(O)OC[C@H]3O[C@@H](n4cc(C)c(=O)[nH]c4=O)C[C@@H]3OP(=O)(O)OC[C@H]3O[C@@H](n4cnc5c(=O)[nH]c(N)nc54)C[C@@H]3OP(=O)(O)OC[C@H]3O[C@@H](n4cc(C)c(=O)[nH]c4=O)C[C@@H]3OP(=O)(O)OC[C@H]3O[C@@H](n4cnc5c(=O)[nH]c(N)nc54)C[C@@H]3OP(=O)(O)OC[C@H]3O[C@@H](n4cc(C)c(=O)[nH]c4=O)C[C@@H]3OP(=O)(O)OCCCCCCNC(=S)Nc3ccc(-c4c5cc(Br)c(=O)c(Br)c-5oc5c(Br)c(O)c(Br)cc45)c(C(=O)O)c3)[C@@H](COP(=O)(O)O[C@H]3C[C@H](n4cc(C)c(=O)[nH]c4=O)O[C@@H]3COP(=O)(O)O[C@H]3C[C@H](n4cc(C)c(=O)[nH]c4=O)O[C@@H]3COP(=O)(O)O[C@H]3C[C@H](n4cnc5c(=O)[nH]c(N)nc54)O[C@@H]3COP(=O)(O)O[C@H]3C[C@H](n4cnc5c(=O)[nH]c(N)nc54)O[C@@H]3CO)O2)c(=O)[nH]c1=O`, for which the midpoint of inhibition, the IC50, lay at 50 nM. The result for `Cc1cn([C@H]2C[C@H](OP(=O)(O)OC[C@H]3O[C@@H](n4cc(C)c(=O)[nH]c4=O)C[C@@H]3OP(=O)(S)OC[C@H]3O[C@@H](n4cc(C)c(=O)[nH]c4=O)C[C@@H]3OP(=O)(O)OC[C@H]3O[C@@H](n4cnc5c(=O)[nH]c(N)nc54)C[C@@H]3OP(=O)(O)OC[C@H]3O[C@@H](n4cc(C)c(=O)[nH]c4=O)C[C@@H]3OP(=O)(S)OC[C@H]3O[C@@H](n4cnc5c(=O)[nH]c(N)nc54)C[C@@H]3OP(=O)(O)OC[C@H]3O[C@@H](n4cc(C)c(=O)[nH]c4=O)C[C@@H]3OP(=O)(O)OCCCCCCNC(=S)Nc3ccc(-c4c5cc(Br)c(=O)c(Br)c-5oc5c(Br)c(O)c(Br)cc45)c(C(=O)O)c3)[C@@H](COP(=O)(O)O[C@H]3C[C@H](n4cc(C)c(=O)[nH]c4=O)O[C@@H]3COP(=O)(S)O[C@H]3C[C@H](n4cc(C)c(=O)[nH]c4=O)O[C@@H]3COP(=O)(O)O[C@H]3C[C@H](n4cnc5c(=O)[nH]c(N)nc54)O[C@@H]3COP(=O)(O)O[C@H]3C[C@H](n4cnc5c(=O)[nH]c(N)nc54)O[C@@H]3CO)O2)c(=O)[nH]c1=O` (some centres not stated) reads 24 nM; that for `Cc1cn([C@H]2C[C@H](OP(=O)(O)OC[C@H]3O[C@@H](n4cc(C)c(=O)[nH]c4=O)C[C@@H]3OP(=O)(O)OC[C@H]3O[C@@H](n4cc(C)c(=O)[nH]c4=O)C[C@@H]3OP(=O)(O)OC[C@H]3O[C@@H](n4cnc5c(=O)[nH]c(N)nc54)C[C@@H]3OP(=O)(O)OC[C@H]3O[C@@H](n4cc(C)c(=O)[nH]c4=O)C[C@@H]3OP(=O)(O)OC[C@H]3O[C@@H](n4cnc5c(=O)[nH]c(N)nc54)C[C@@H]3OP(=O)(O)OC[C@H]3O[C@@H](n4cc(C)c(=O)[nH]c4=O)C[C@@H]3OP(=O)(O)OCCCCCCNC(=S)Nc3ccc(-c4c5ccc(=O)cc-5oc5cc(O)ccc45)c(C(=O)O)c3)[C@@H](COP(=O)(O)O[C@H]3C[C@H](n4cc(C)c(=O)[nH]c4=O)O[C@@H]3COP(=O)(O)O[C@H]3C[C@H](n4cc(C)c(=O)[nH]c4=O)O[C@@H]3COP(=O)(O)O[C@H]3C[C@H](n4cnc5c(=O)[nH]c(N)nc54)O[C@@H]3COP(=O)(O)O[C@H]3C[C@H](n4cnc5c(=O)[nH]c(N)nc54)O[C@@H]3CO)O2)c(=O)[nH]c1=O`, 315 nM. `CCCCCCCC/C=C\CCCCCCCC(=O)NCCCOCC(O)COP(=O)(O)O[C@H]1C[C@H](n2cc(C)c(=O)[nH]c2=O)O[C@@H]1COP(=O)(O)O[C@H]1C[C@H](n2cnc3c(=O)[nH]c(N)nc32)O[C@@H]1COP(=O)(O)O[C@H]1C[C@H](n2cc(C)c(=O)[nH]c2=O)O[C@@H]1COP(=O)(O)O[C@H]1C[C@H](n2cnc3c(=O)[nH]c(N)nc32)O[C@@H]1COP(=O)(O)O[C@H]1C[C@H](n2cc(C)c(=O)[nH]c2=O)O[C@@H]1COP(=O)(O)O[C@H]1C[C@H](n2cc(C)c(=O)[nH]c2=O)O[C@@H]1COP(=O)(O)O[C@H]1C[C@H](n2cc(C)c(=O)[nH]c2=O)O[C@@H]1COP(=O)(O)O[C@H]1C[C@H](n2cc(C)c(=O)[nH]c2=O)O[C@@H]1COP(=O)(O)O[C@H]1C[C@H](n2cc(C)c(=O)[nH]c2=O)O[C@@H]1COP(=O)(O)O[C@H]1C[C@H](n2cnc3c(=O)[nH]c(N)nc32)O[C@@H]1COP(=O)(O)O[C@H]1C[C@H](n2cnc3c(=O)[nH]c(N)nc32)O[C@@H]1COP(=O)(O)O[C@@H]1C[C@@H](CO)N(C(=O)CCCCCNC(=O)c2ccc(C(=O)O)c(-c3c4ccc(=O)cc-4oc4cc(O)ccc34)c2)C1` (some centres not stated) came in with an IC50 of 20 nM.

Regarding `Cc1cn([C@H]2C[C@H](OP(=O)(O)OC[C@H]3O[C@@H](n4cc(C)c(=O)[nH]c4=O)C[C@@H]3OP(=O)(O)OC[C@H]3O[C@@H](n4cc(C)c(=O)[nH]c4=O)C[C@@H]3OP(=O)(O)OC[C@H]3O[C@@H](n4cnc5c(=O)[nH]c(N)nc54)C[C@@H]3OP(=O)(O)OC[C@H]3O[C@@H](n4cc(C)c(=O)[nH]c4=O)C[C@@H]3OP(=O)(O)OC[C@H]3O[C@@H](n4cnc5c(=O)[nH]c(N)nc54)C[C@@H]3OP(=O)(O)OC[C@H]3O[C@@H](n4cc(C)c(=O)[nH]c4=O)C[C@@H]3O)[C@@H](COP(=O)(O)O[C@H]3C[C@H](n4cc(C)c(=O)[nH]c4=O)O[C@@H]3COP(=O)(O)O[C@H]3C[C@H](n4cc(C)c(=O)[nH]c4=O)O[C@@H]3COP(=O)(O)O[C@H]3C[C@H](n4cnc5c(=O)[nH]c(N)nc54)O[C@@H]3COP(=O)(O)O[C@H]3C[C@H](n4cnc5c(=O)[nH]c(N)nc54)O[C@@H]3COP(=O)(O)OCCCCCCNC(=O)c3cc(Cl)c(C(=O)O)c(-c4c5cc(Cl)c(=O)cc-5oc5cc(O)c(Cl)cc45)c3Cl)O2)c(=O)[nH]c1=O`, half-maximal inhibition (IC50) required 290 nM. Then `Cc1cn([C@H]2C[C@H](OP(=O)(O)OC[C@H]3O[C@@H](n4cnc5c(=O)[nH]c(N)nc54)C[C@@H]3OP(=O)(O)OC[C@H]3O[C@@H](n4cc(C)c(=O)[nH]c4=O)C[C@@H]3OP(=O)(O)OC[C@H]3O[C@@H](n4cnc5c(=O)[nH]c(N)nc54)C[C@@H]3OP(=O)(O)OC[C@H]3O[C@@H](n4cc(C)c(=O)[nH]c4=O)C[C@@H]3O)[C@@H](COP(=O)(O)O[C@H]3CCO[C@@H]3COP(=O)(O)O[C@H]3CCO[C@@H]3COP(=O)(O)O[C@H]3CCO[C@@H]3COP(=O)(O)O[C@H]3CCO[C@@H]3COP(=O)(O)O[C@H]3CCO[C@@H]3COP(=O)(O)O[C@H]3CCO[C@@H]3COP(=O)(O)OCCCCCCNC(=O)c3cc(Cl)c(C(=O)O)c(-c4c5cc(Cl)c(=O)c(Cl)c-5oc5c(Cl)c(O)c(Cl)cc45)c3Cl)O2)c(=O)[nH]c1=O`, with 280 nM; and `CCCCCCCC/C=C\CCCCCCCC(=O)NCCCOCC(O)COP(=O)(O)O[C@@H]1C[C@@H](COP(=O)(O)O[C@H]2C[C@H](n3cc(C)c(=O)[nH]c3=O)O[C@@H]2COP(=O)(O)O[C@H]2C[C@H](n3cnc4c(=O)[nH]c(N)nc43)O[C@@H]2COP(=O)(O)O[C@H]2C[C@H](n3cc(C)c(=O)[nH]c3=O)O[C@@H]2COP(=O)(O)O[C@H]2C[C@H](n3cnc4c(=O)[nH]c(N)nc43)O[C@@H]2COP(=O)(O)O[C@H]2C[C@H](n3cc(C)c(=O)[nH]c3=O)O[C@@H]2COP(=O)(O)O[C@H]2C[C@H](n3cc(C)c(=O)[nH]c3=O)O[C@@H]2COP(=O)(O)O[C@H]2C[C@H](n3cc(C)c(=O)[nH]c3=O)O[C@@H]2COP(=O)(O)O[C@H]2C[C@H](n3cc(C)c(=O)[nH]c3=O)O[C@@H]2COP(=O)(O)O[C@H]2C[C@H](n3cc(C)c(=O)[nH]c3=O)O[C@@H]2COP(=O)(O)O[C@H]2C[C@H](n3cnc4c(=O)[nH]c(N)nc43)O[C@@H]2COP(=O)(O)O[C@H]2C[C@H](n3cnc4c(=O)[nH]c(N)nc43)O[C@@H]2CO)N(C(=O)CCCCCNC(=O)c2ccc(C(=O)O)c(-c3c4ccc(=O)cc-4oc4cc(O)ccc34)c2)C1` (some centres not stated), with 23 nM.
